Results from patent US20070135374A1, “Composition for promoting collagen production” (OTSUKA PHARMACEUTICAL CO., LTD., priority 2003, published 2007).

Tests used:
human skin fibroblasts [1] = assay: Collagen production promoting effect of combined use of AMP2Na and UMP2Na on cultured human skin fibroblasts (PICP EIA), Test Example 2; format: cell-based
Protocol: (§1) 1) The freeze-preserved cells were dissolved in an LSGS (Low Serum Growth Supplement)-containing liquid culture medium 106S (manufactured by Kurabo Industries, Ltd.), and the cell concentration and medium amount were adjusted to 30000 cells/100 μl. 100 μl of thus obtained cell-containing liquid was poured into each well of a test plate.
2) AMP2Na solutions of various concentrations were prepared using a sterilized phosphate buffer solution, and then filtered through a filter, followed by sterilization. The resultants were added to a liquid medium 106S (manufactured by Kurabo Industries, Ltd.) to prepare AMP2Na-containing culture media of various concentrations (0 to 1×10^−5 w/v %).
3) Twenty four hours after injecting cells into the plate wells, it was confirmed that human fibroblasts adhered to the wells, and the medium was removed from each well. Subsequently, an AMP2Na-containing culture medium (200 μl) of one of various concentrations prepared in 2) above was added to each well. The mixtures were cultured at 37° C. under 5% CO2 for two days.
(§2) 4) Two days after culture initiation, the culture supernatant of each well was collected, and the amount of Procollagen type I C-peptide (PICP) was determined based on the amount of collagen in the culture supernatant using a Procollagen type I C-peptide (PIP) EIA Kit (manufactured by Takara Bio Inc.).
Evaluation of the collagen production promoting effect of the combined use of adenosine monophosphate disodium and uridine monophosphate disodium on cultured human skin fibroblasts.
The evaluation of the collagen production promoting effect of cultured human skin fibroblasts was conducted following the same procedure of Test Example 1 above except for using such media. In Table 1, the proportions of AMP2Na and UMP2Na were based on the concentration of AMP and UMP, respectively.

human skin fibroblasts [2] = assay: Collagen production promoting effect of AMP2Na on cultured human skin fibroblasts (PICP EIA), Test Example 1; format: cell-based; details: 2 days culture, culture supernatant, FIG. 1
Protocol: Evaluation of the collagen production promoting effect of adenosine monophosphate disodium on cultured human skin fibroblasts.
Primary-cultured human skin fibroblasts (manufactured by Kurabo Industries, Ltd.) were cultured in a 10 cm petri dish, and the cultured cells were collected in the subconfluent state and then freeze-preserved. Using the freeze-preserved cells, an evaluation of the collagen production promoting effect of adenosine monophosphate disodium (hereinafter, referred to as “AMP2Na) was conducted. In the following, the proportion of AMP2Na was based on the concentration of AMP.
as §1, with “plate. […]” for “plate.”
as §2

Compound	action of promoting collagen production (PICP concentration) (human skin fibroblasts [1]; AMP2Na alone 1×10^−6 w/v % (test medium 2) vs test medium 4, FIG. 2)	PICP amount relative to cells cultured in the AMP-free medium (human skin fibroblasts [2]; AMP2Na 1×10^−5 w/v % in medium)	PICP amount as compared with cells cultured in an AMP-free medium (human skin fibroblasts [2]; AMP2Na 1×10^−8 to 1×10^−5 w/v % in medium)	action of promoting collagen production (PICP concentration) (human skin fibroblasts [1]; UMP2Na alone 1×10^−8 w/v % (test medium 3) vs test medium 4, FIG. 2)	potentiation of the action of promoting collagen production of AMP2Na (PICP concentration) (human skin fibroblasts [1]; combined use: AMP2Na 1×10^−6 w/v % + UMP2Na 1×10^−8 w/v % (test medium 1), FIG. 2)
Nc1ncnc2c1ncn2[C@@H]1O[C@H](COP(=O)([O-])[O-])[C@@H](O)[C@H]1O.[Na+].[Na+] [AMP2Na, adenosine monophosphate disodium]	has an action of promoting collagen production	about 1.4 times	increased	–	–
O=c1ccn([C@@H]2O[C@H](COP(=O)([O-])[O-])[C@@H](O)[C@H]2O)c(=O)[nH]1.[Na+].[Na+] [UMP2Na, uridine monophosphate disodium]	–	–	–	no action of promoting collagen production	sharply potentiates
